# Tests used:
# Format in all cases: biochemical
# [1] = tested on: NAHA activity from Graham-flour; experiment: NAHA activity assay (4-methylumbelliferyl N-acetyl-β-D-glucosaminide, fluorescence), Graham-flour; conditions: Graham Hour
# Description: (§1) In order to determine NAHA activity in different samples, the technology in WO 98/033934 was employed: A sample containing a dried or freeze dried organism is added to a buffer solution containing 4-Methylumbelliferyl N-acetyl-β-D-glucosaminide in a concentration of 20 μM. The reaction-time is varied depending on the ambient temperature and according to a reaction-time/temperature data sheet previously developed for fungal NAHA activity at various temperatures, and is 30 minutes at 23° C. The resulting fluorescence formed during the reaction time is monitored in a calibrated fluorometer.
# (§2) Experiments were conducted where varying concentrations of AgNO3 was added to an analysis substrate. Furthermore, the experiments where performed on dried or freeze dried materials where both intact and fragmented cells are to be expected to be present.
# (§3) Experiments analogous to those in example 1 were carried out, but instead of using non-specific inhibitors, the effect of different concentrations of DNJNAc on the NAHA activity in various biomass containing samples was investigated.
# [2] = tested on: NAHA activity from Ambrosia psilostachya (Rag weed pollen); experiment: NAHA activity assay, rag weed pollen
# Description: as §1, §2, §3
# [3] = tested on: NAHA activity from Cat dander; experiment: NAHA activity assay, cat dander
# Description: as §1, §2, §3
# [4] = tested on: NAHA activity from Human skin cells; experiment: NAHA activity assay, human skin cells
# Description: as §1, §2, §3
# [5] = tested on: NAHA activity from Mugworth pollen; experiment: NAHA activity assay, mugworth pollen
# Description: as §1, §2, §3
# [6] = tested on: NAHA activity from Grass pollen; experiment: NAHA activity assay, grass pollen; conditions: Grass pollen
# Description: as §1, §2, §3
# [7] = tested on: NAHA activity from Birch pollen; experiment: NAHA activity assay, birch pollen; conditions: Birch sollen
# Description: as §1, §2, §3
# [8] = tested on: NAHA activity from Aspergillus fumigatus freeze dried; experiment: NAHA activity assay, Aspergillus fumigatus freeze dried; conditions: Aspergillus fumigatus (Freeze dried)
# Description: as §1, §2, §3
# [9] = tested on: NAHA activity from Acremonium spp.; experiment: NAHA activity assay, Acremonium spp.; conditions: Acremonium sp.
# Description: as §1, §2, §3
# [10] = tested on: NAHA activity from Cladosporium sphaerospermum; experiment: NAHA activity assay, Cladosporium sphaerospermum; conditions: Chladosporium sphaerosperm
# Description: as §1, §2, §3
# [11] = tested on: NAHA activity from Fusarium culmorum; experiment: NAHA activity assay, Fusarium culmorum
# Description: as §1, §2, §3
smiles,measurement,setting,value
"CC(=O)N[C@H]1CN[C@H](CO)[C@@H](O)[C@@H]1O [DNJNAc, 2-Acetamido-1,2-dideoxynojirimycin]","NAHA activity, 0 μM DNJNAc = 100%",[1]; DNJNAc 24.5 μM,14%
same,"NAHA activity, 0 μM DNJNAc = 100%",[1]; DNJNAc 49 μM,9%
same,"NAHA activity, 0 μM DNJNAc = 100%",[1]; DNJNAc 98 μM,6%
same,"NAHA activity, 0 μM DNJNAc = 100%",[1]; DNJNAc 196 μM,6%
same,"NAHA activity, 0 μM DNJNAc = 100%",[2]; DNJNAc 24.5 μM,8%
same,"NAHA activity, 0 μM DNJNAc = 100%",[2]; DNJNAc 49 μM,6%
same,"NAHA activity, 0 μM DNJNAc = 100%",[2]; DNJNAc 98 μM,5%
same,"NAHA activity, 0 μM DNJNAc = 100%",[2]; DNJNAc 196 μM,4%
same,"NAHA activity, 0 μM DNJNAc = 100%",[3]; DNJNAc 24.5 μM,7%
same,"NAHA activity, 0 μM DNJNAc = 100%",[3]; DNJNAc 49 μM,5%
same,"NAHA activity, 0 μM DNJNAc = 100%",[3]; DNJNAc 98 μM,3%
same,"NAHA activity, 0 μM DNJNAc = 100%",[3]; DNJNAc 196 μM,2%
same,"NAHA activity, 0 μM DNJNAc = 100%",[4]; DNJNAc 24.5 μM,3%
same,"NAHA activity, 0 μM DNJNAc = 100%",[4]; DNJNAc 49 μM,1%
same,"NAHA activity, 0 μM DNJNAc = 100%",[4]; DNJNAc 98 μM,1%
same,"NAHA activity, 0 μM DNJNAc = 100%",[4]; DNJNAc 196 μM,1%
same,"NAHA activity, 0 μM DNJNAc = 100%",[5]; DNJNAc 24.5 μM,8%
same,"NAHA activity, 0 μM DNJNAc = 100%",[5]; DNJNAc 49 μM,6%
same,"NAHA activity, 0 μM DNJNAc = 100%",[5]; DNJNAc 98 μM,5%
same,"NAHA activity, 0 μM DNJNAc = 100%",[5]; DNJNAc 196 μM,4%
same,"NAHA activity, 0 μM DNJNAc = 100%",[6]; DNJNAc 24.5 μM,41%
same,"NAHA activity, 0 μM DNJNAc = 100%",[6]; DNJNAc 49 μM,37%
same,"NAHA activity, 0 μM DNJNAc = 100%",[6]; DNJNAc 98 μM,30%
same,"NAHA activity, 0 μM DNJNAc = 100%",[6]; DNJNAc 196 μM,20%
same,"NAHA activity, 0 μM DNJNAc = 100%",[7]; DNJNAc 24.5 μM,10%
same,"NAHA activity, 0 μM DNJNAc = 100%",[7]; DNJNAc 49 μM,9%
same,"NAHA activity, 0 μM DNJNAc = 100%",[7]; DNJNAc 98 μM,8%
same,"NAHA activity, 0 μM DNJNAc = 100%",[7]; DNJNAc 196 μM,9%
same,"NAHA activity, 0 μM DNJNAc = 100%",[8]; DNJNAc 24.5 μM,114%
same,"NAHA activity, 0 μM DNJNAc = 100%",[8]; DNJNAc 49 μM,105%
same,"NAHA activity, 0 μM DNJNAc = 100%",[8]; DNJNAc 98 μM,104%
same,"NAHA activity, 0 μM DNJNAc = 100%",[8]; DNJNAc 196 μM,96%
same,"NAHA activity, 0 μM DNJNAc = 100%",[9]; DNJNAc 24.5 μM,99%
same,"NAHA activity, 0 μM DNJNAc = 100%",[9]; DNJNAc 49 μM,92%
same,"NAHA activity, 0 μM DNJNAc = 100%",[9]; DNJNAc 98 μM,80%
same,"NAHA activity, 0 μM DNJNAc = 100%",[9]; DNJNAc 196 μM,76%
same,"NAHA activity, 0 μM DNJNAc = 100%",[10]; DNJNAc 24.5 μM,43%
same,"NAHA activity, 0 μM DNJNAc = 100%",[10]; DNJNAc 49 μM,32%
same,"NAHA activity, 0 μM DNJNAc = 100%",[10]; DNJNAc 98 μM,49%
same,"NAHA activity, 0 μM DNJNAc = 100%",[10]; DNJNAc 196 μM,21%
same,"NAHA activity, 0 μM DNJNAc = 100%",[11]; DNJNAc 24.5 μM,85%
same,"NAHA activity, 0 μM DNJNAc = 100%",[11]; DNJNAc 49 μM,82%
